Here are results for 1 compound from publication PMC5712788, “DM9 Domain Containing Protein Functions As a Pattern Recognition Receptor with Broad Microbial Recognition Spectrum” (Frontiers in Immunology, 2017).

The target of this assay is T1, CgDM9CP-1 (rCgDM9CP-1) (Magallana gigas, UniProt K1QRB6).
T1 construct: gene CGI_10011001; recombinant, E. coli Transetta (DE3); two DM9 domains; mutants in pET-28a with N-terminal 6xHis; 5MH2 is D22A, 5MH3 is K43A
T1 sequence (K1QRB6 1-143): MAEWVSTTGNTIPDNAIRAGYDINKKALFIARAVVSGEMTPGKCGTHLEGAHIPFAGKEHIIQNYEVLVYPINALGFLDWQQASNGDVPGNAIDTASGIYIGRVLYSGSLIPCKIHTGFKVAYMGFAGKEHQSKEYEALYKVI
Briefly: ITC. It counts as binding. Particulars: 25°C, PBS (pH 7.2 in table, 7.4 in methods), N = 1. The text has this:
ITC on CgDM9CP-1 (rCgDM9CP-1)

The term Kd denotes the equilibrium constant for the complex coming apart. High values mean weaker binding, low ones tighter binding. In the case of `OC[C@H]1OC(O)[C@@H](O)[C@@H](O)[C@@H]1O` (stereo partly drawn) [D-mannose], the Kd is 123 ± 19.7 µM and the Value is recorded as 8.16 ± 0.19 10^3 M^−1.
